The values below are quoted from earlier work in patent US11299488B2, “Five membered-aminoheterocycle and 5,6-or 6,6-membered bicyclic aminoheterocyclic inhibitors of rock for the treatment of heart failure” (BRISTOL-MYERS SQUIBB COMPANY, priority 2017, dated 2022).

Series [1] concerns spontaneously hypertensive rat, renal hypertensive rat and deoxycortisone acetate salt hypertensive rat models. The following applies: cited from earlier work.
The next series relates to neointimal formation. The following applies: rats, similar model to balloon injury; cited from earlier work.
The test system of series [2] is congestive heart failure in Dahl salt-sensitive rats. The conditions noted are these: rat, in vivo; cited from earlier work.

Take `C[C@@H](N)[C@H]1CC[C@H](C(=O)Nc2ccncc2)CC1` [Example Y-27632, Y-27632]: the “blood pressure in control rats” value in series [1] (control rats) is “only a minor effect on blood pressure”. For the same molecule, the blood pressure entry in series [1] (three rat models of hypertension) is “significantly decrease blood pressure”. In addition, in the series with neointimal formation, the neointimal formation entry is given as “inhibited neointimal formation”. Further, the “ventricular hypertrophy, fibrosis and function” value in series [2] is “improve ventricular hypertrophy, fibrosis and function”.
